{"source": "patent US9114107B2", "about": "“Compositions for inhibiting virus entry and promoting virolysis, and methods thereof” (priority 2010, dated 2015)", "origin": "cited, not measured here", "system": "virus challenge", "conditions": "cited from earlier work", "data": [{"smiles": "COc1ccnc2[nH]cc(C(=O)C(=O)N3CCN(C(=O)c4ccccc4)C[C@H]3C)c12", "note": "[BMS-806, (R)-1-(4-benzoyl-2-methylpiperazin-1-yl)-2-(4-methoxy-1H-pyrrolo[2,3-b]pyridin-3-yl)ethane-1,2-dione]", "values": [{"measurement": "local irritation or inflammation of macaque vagina", "setting": "biopsy after multiple applications", "result": "No local irritation or inflammation was observed"}, {"measurement": "animals protected", "setting": "macaques challenged with virus 2-6 hours after application", "result": "3 of 5"}]}]}
